# Data as given in paper PMC9613624 (Journal of medicinal chemistry, 2022).
# Entries after “also recorded” stand apart in the source; their conditions may differ.
# Assays:
# P-PRAS40 = experiment: Western blotting of P-PRAS40 in SW620 cells; conditions: 1 μM; for P-PRAS40 inhibition (western blot verification for proteomics, in words): 18 h, Figure S4
# AKT [1] = experiment: Western blotting of T-AKT in SW620 cells; assay type: cell-based; conditions: for T-AKT level (western blot verification for proteomics, in words): 18 h, Figure S4; for effect on AKT protein levels at high concentrations (in words): concentrations up to 10 μM
# AKT [2] = experiment: Western blotting of T-AKT in HT-29 cells; assay type: cell-based; conditions: HT-29 cells (BRAF mutant), 1 μM, 24 h
# SW620 cells [3] = experiment: Cell death monitoring with DRAQ7 in SW620 cells; assay type: cell-based; conditions: 5 μM, DRAQ7, 0-72 h
# AKT1 [4] = biological target: T1, AKT1 (Homo sapiens, UniProt P31749); experiment: Western blotting of AKT isoforms in SW620 cells; assay type: cell-based; conditions: Figure S3
# AKT2 [5] = biological target: T2, AKT2 (Homo sapiens, UniProt P31751); experiment: Western blotting of AKT isoforms in SW620 cells; assay type: cell-based; conditions: Figure S3
# AKT [6] = experiment: Western blotting of T-AKT in Mia PaCa-2 cells; assay type: cell-based; conditions: Mia PaCa-2 cells (KRAS mutant), Figure S2A
# [7] = Mouse pharmacokinetic study; assay type: in vivo, male Swiss Albino mice; conditions: mice, single IP dose 75 mg/kg
# AKT2 [8] = biological target: T2, AKT2; experiment: Global TMT MS-based quantitative proteomic study in SW620 cells; assay type: cell-based; conditions: 1 μM, 18 h, 62 compared to 63
# AKT [9] = experiment: Western blotting of T-AKT in Colo205 cells; assay type: cell-based; conditions: Colo205 cells (BRAF mutant), 1 μM, 24 h
# AKT [10] = experiment: Western blotting of T-AKT in PANC-1 cells; assay type: cell-based; conditions: 24 h
# AKT1 [11] = biological target: T1, AKT1; experiment: Global TMT MS-based quantitative proteomic study in SW620 cells; assay type: cell-based; conditions: 1 μM, 18 h, approximately 6433 proteins detected
# AKT [12] = experiment: Western blotting of T-AKT in SKMEL 239 cells; assay type: cell-based; conditions: SKMEL 239 cells (BRAF mutant), 1 μM, 24 h
# SW620 cells [13] = experiment: Colony formation assay in SW620 cells; assay type: cell-based; conditions: 2 weeks, crystal violet
# AKT2 [14] = biological target: T2, AKT2; experiment: AKT activity inhibition assay; assay type: biochemical; conditions: 10 μM ATP
# AKT3 = AKT3 (Homo sapiens, UniProt Q9Y243); experiment: AKT activity inhibition assay; assay type: biochemical; conditions: 10 μM ATP
# SW620 cells [15] = experiment: Cell proliferation assay; assay type: cell-based; conditions: 5 days, IncuCyte
# AKT1 [16] = biological target: T1, AKT1; experiment: AKT activity inhibition assay; assay type: biochemical; conditions: 10 μM ATP
# [17] = PANC-1 cells (KRAS mutant), 1 μM
# T2 sequence (P31751 whole entry, canonical isoform): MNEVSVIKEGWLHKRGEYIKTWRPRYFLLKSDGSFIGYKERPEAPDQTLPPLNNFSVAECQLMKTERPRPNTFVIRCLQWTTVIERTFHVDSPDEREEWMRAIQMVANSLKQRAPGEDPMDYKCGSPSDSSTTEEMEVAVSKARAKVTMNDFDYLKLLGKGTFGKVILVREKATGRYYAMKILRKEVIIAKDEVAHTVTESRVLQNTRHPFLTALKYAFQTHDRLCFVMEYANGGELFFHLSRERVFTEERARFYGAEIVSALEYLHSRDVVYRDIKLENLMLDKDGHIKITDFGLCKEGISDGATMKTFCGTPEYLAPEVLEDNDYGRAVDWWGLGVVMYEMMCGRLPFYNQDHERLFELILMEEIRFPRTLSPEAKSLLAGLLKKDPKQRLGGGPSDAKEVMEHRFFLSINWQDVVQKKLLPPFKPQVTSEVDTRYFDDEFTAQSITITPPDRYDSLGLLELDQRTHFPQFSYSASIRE
# T1 sequence (P31749 whole entry, canonical isoform): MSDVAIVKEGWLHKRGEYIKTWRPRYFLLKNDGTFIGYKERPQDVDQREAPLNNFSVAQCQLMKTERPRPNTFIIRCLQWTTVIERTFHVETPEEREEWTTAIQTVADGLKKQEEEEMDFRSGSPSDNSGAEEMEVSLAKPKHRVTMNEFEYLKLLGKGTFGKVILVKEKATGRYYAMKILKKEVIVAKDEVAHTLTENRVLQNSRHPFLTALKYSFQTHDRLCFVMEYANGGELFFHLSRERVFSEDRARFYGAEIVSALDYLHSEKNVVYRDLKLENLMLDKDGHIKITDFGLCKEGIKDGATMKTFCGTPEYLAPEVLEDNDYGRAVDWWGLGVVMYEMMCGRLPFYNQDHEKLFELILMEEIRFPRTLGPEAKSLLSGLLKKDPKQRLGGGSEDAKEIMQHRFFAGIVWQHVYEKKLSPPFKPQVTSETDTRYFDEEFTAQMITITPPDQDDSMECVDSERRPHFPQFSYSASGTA
# Chain of AKT3 (Q9Y243 whole entry): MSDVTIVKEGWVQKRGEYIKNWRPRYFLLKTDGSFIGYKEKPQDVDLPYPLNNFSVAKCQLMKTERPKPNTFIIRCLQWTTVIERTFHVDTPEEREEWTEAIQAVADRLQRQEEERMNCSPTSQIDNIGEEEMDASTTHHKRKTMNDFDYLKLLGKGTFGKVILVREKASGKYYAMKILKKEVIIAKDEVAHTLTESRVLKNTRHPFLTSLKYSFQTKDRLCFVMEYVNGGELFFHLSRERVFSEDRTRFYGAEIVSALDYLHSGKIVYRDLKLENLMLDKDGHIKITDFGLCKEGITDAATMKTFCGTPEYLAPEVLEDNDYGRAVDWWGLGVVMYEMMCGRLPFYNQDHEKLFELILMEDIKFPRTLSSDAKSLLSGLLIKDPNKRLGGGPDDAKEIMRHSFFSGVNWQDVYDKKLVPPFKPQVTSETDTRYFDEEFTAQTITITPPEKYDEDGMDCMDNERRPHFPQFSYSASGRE
smiles,measurement,setting,value
"Nc1ncccc1-c1nc2ccc(-c3ccccc3)nc2n1-c1ccc(C2(N)CCC2)cc1 [ARQ-092, 3-(3-(4-(1-Aminocyclobutyl)phenyl)-5-phenyl-3H-imidazo[4,5-b]pyridin-2-yl)pyridin −2-amine, reference compound]",phosphorylation of PRAS40 in time-course study (in words),P-PRAS40; up to 24 h,potently inhibited
"Cc1ncsc1-c1ccc([C@H](C)NC(=O)[C@@H]2C[C@@H](O)CN2C(=O)[C@@H](NC(=O)CCCCCCCCCCNC(=O)CCc2cccc(-c3ccc4nc(-c5cccnc5N)n(-c5ccc(C6(N)CCC6)cc5)c4n3)c2)C(C)(C)C)cc1 [Compound 62, (2S,4R)-1-((S)-2-(11-(3-(3-(3-(4-(1-Aminocyclobutyl)phenyl)-2-(2-aminopyridin-3-yl)-3H-imidazo[4,5-b]pyridin-5-yl)phenyl)propanamido)undecanamido)-3,3-dimethylbutanoyl)-4-hydroxy-N-((S)-1-(4-(4-methylthiazol-5-yl)phenyl)ethyl)pyrrolidine-2-carboxamide]","T-AKT degradation (western blot, in words)","AKT [1]; SW620 cells (KRAS mutant), Figure S2",effectively and completely depleted T-AKT; also recorded: much more effective than MS21
same,T-AKT degradation (in words),"AKT [1]; SW620 cells, 30 nM, 24 h",substantial T-AKT depletion
same,T-AKT degradation (in words),"AKT [1]; SW620 cells, 100 nM, 24 h",nearly complete AKT degradation
same,"T-AKT level (western blot verification for proteomics, in words)","AKT [1]; SW620 cells, 1 μM",significantly reduced
same,T-AKT degradation in time-course study (in words),"AKT [1]; SW620 cells, 1 μM, at 4 h",Significant AKT degradation
same,T-AKT degradation in time-course study (in words),"AKT [1]; SW620 cells, 1 μM, at 12 h, maintained for at least another 12 h",Near complete AKT degradation
same,T-AKT protein level in time-course study (in words),"AKT [1]; SW620 cells, 1 μM, up to 24 h",time-dependently reduced T-AKT protein levels
same,effect on AKT protein levels at high concentrations (in words),"AKT [1]; SW620 cells, 24 h",no “hooker effect” was observed
same,DC50,"AKT [1]; read-out: DC50, T-AKT degradation, SW620 cells, 24 h, western blot",23 ± 16 nM
same,T-AKT degradation (in words),AKT [2],more effective than MS21
same,induction of cell apoptosis / percent cell death (in words),SW620 cells [3],most effectively
same,"AKT1 degradation (western blot, in words)",AKT1 [4],potently induced
same,"AKT2 degradation (western blot, in words)",AKT2 [5],potently induced
same,"T-AKT degradation (western blot, in words)",AKT [6],modestly induced AKT degradation
same,clinical signs during the PK study,[7],No clinical signs were observed
same,plasma concentrations,[7]; maintained for at least 12 h,above 100 nM
same,AKT2 protein level in TMT proteomics (in words),AKT2 [8],also reduced
same,T-AKT degradation (in words),AKT [9],more effective than MS21
same,"P-PRAS40 inhibition (western blot verification for proteomics, in words)",P-PRAS40,inhibited
same,T-AKT degradation (in words),AKT [10]; [17],near-complete AKT degradation
same,T-AKT degradation (in words),"AKT [10]; PANC-1 cells, 100 nM",complete degradation
same,T-AKT degradation at high concentrations (in words),"AKT [10]; PANC-1 cells, concentrations up to 10 μM",no “hooker effect” was observed
same,AKT1 protein level in TMT proteomics (in words),AKT1 [11],reduced significantly
same,proteome-wide degradation selectivity (in words),AKT1 [11],generally selective AKT degrader
same,T-AKT degradation (in words),AKT [12],more effective than MS21
same,inhibition of colony formation (in words),SW620 cells [13],significantly inhibited colony formation
"Cc1ncsc1-c1ccc([C@H](C)NC(=O)[C@H]2C[C@H](O)CN2C(=O)[C@@H](NC(=O)CCCCCCCCCCNC(=O)CCc2cccc(-c3ccc4nc(-c5cccnc5N)n(-c5ccc(C6(N)CCC6)cc5)c4n3)c2)C(C)(C)C)cc1 [Compound 63, (2R,4S)-1-((S)-2-(11-(3-(3-(3-(4-(1-Aminocyclobutyl)phenyl)-2-(2-aminopyridin-3-yl)-3H-imidazo[4,5-b]pyridin-5-yl)phenyl)propanamido)undecanamido)-3,3-dimethylbutanoyl)-4-hydroxy-N-((S)-1-(4-(4-methylthiazol-5-yl)phenyl)ethyl)pyrrolidine-2-carboxamide]","T-AKT level (western blot verification for proteomics, in words)","AKT [1]; SW620 cells, 1 μM",no effect
same,effect on AKT protein levels at high concentrations (in words),"AKT [1]; SW620 cells, 24 h",no effect
same,"P-PRAS40 inhibition (western blot verification for proteomics, in words)",P-PRAS40,no effect
"Cc1ncsc1-c1ccc([C@H](C)NC(=O)[C@H]2C[C@H](OCc3ccccc3)CN2C(=O)[C@@H](NC(=O)CCCCCCCCCCNC(=O)CCc2cccc(-c3ccc4nc(-c5cccnc5N)n(-c5ccc(C6(N)CCC6)cc5)c4n3)c2)C(C)(C)C)cc1 [Compound 64, (2R,4S)-1-((S)-2-(11-(3-(3-(3-(4-(1-Aminocyclobutyl)phenyl)-2-(2-aminopyridin-3-yl)-3H-imidazo[4,5-b]pyridin-5-yl)phenyl)propanamido)undecanamido)-3,3-dimethylbutanoyl)-4-(benzyloxy)-N-((S)-1-(4-(4-methylthiazol-5-yl)phenyl)ethyl)pyrrolidine-2-carboxamide]",effect on AKT protein levels at high concentrations (in words),"AKT [1]; SW620 cells, 24 h",no effect
same,decrease of AKT2 inhibition potency compared to 62,AKT2 [14],6 fold
same,decrease of AKT3 inhibition potency compared to 62,AKT3,3.6 fold
same,cell growth inhibition (in words),SW620 cells [15],inactive
same,decrease of AKT1 inhibition potency compared to 62,AKT1 [16],1.5 fold
"Cc1ncsc1-c1ccc(CNC(=O)[C@@H]2C[C@@H](O)CN2C(=O)[C@@H](NC(=O)CCCCCCCCCC(=O)N2CCN(CC[C@H](NC(=O)C3(N)CCN(c4ncnc5[nH]ccc45)CC3)c3ccc(Cl)cc3)CC2)C(C)(C)C)cc1 [MS21, reference compound]",T-AKT degradation (in words),"AKT [1]; SW620 cells, indicated concentrations, 24 h, Figure 7E",largely ineffective
same,T-AKT degradation (in words),AKT [10]; [17],unable to reduce the AKT protein level
same,inhibition of colony formation (in words),SW620 cells [13],no effect
